# Assay results reported in US4925852A, “3-demethylmevalonic acid derivatives, and pharmaceutical products based on these compounds” (Hoechst Aktiengesellschaft, priority 1987, dated 1990).
# pIC50: −log10 of the molar value. Structures can show the parent of a compound that is named as a salt.
# Test system: HEP-G2 cells (cholesterol biosynthesis)
# Test: Inhibition of cholesterol biosynthesis in cell cultures of HEP-G2 cells (14C-acetate into 14C-cholesterol)
# Type: cell-based
# Settings: Homo sapiens, HepG2, Table 2, preincubation for example 1 hour, 14C-acetate for example 3 hours, read-out: IC50 (concentration of the compound which brings about 50% inhibition of cholesterol biosynthesis)
# Description: Monolayers of HEP-G2 cells in lipoprotein-free nutrient medium were preincubated with appropriate concentrations of the test substances for a defined time (for example 1 hour), the labeled precursor, for example sodium ^14 C-acetate was added and then the incubation was continued (for example for 3 hours). Addition of an internal standard (^3 H-cholesterol) was followed by alkaline hydrolysis of some of the cells. The lipids were extracted from the hydrolyzed cells using chloroform/methanol. Carrier cholesterol was added to this lipid mixture which was then subjected to preparative thin-layer chromatography, the cholesterol band was visualized with iodine vapor and then isolated, and the amount of ^14 C-cholesterol formed from the ^14 C-precursor was determined by scintigraphy. Cellular protein was determined in an aliquot of the cells, so that it is possible to calculate the amount of ^14 C-cholesterol formed per mg of cellular protein in unit time.
# in nmol of ^14 C-cholesterol/mg of cell protein
# in comparison with the solvent control.
# Using the method described above, the following values for the inhibition of cholesterol biosynthesis (in HEP-G2 cells) were determined for the compounds according to the invention, for example (the IC50 /mol/liter is the concentration of the compound which brings about 50% inhibition of cholesterol biosynthesis) (Tab. 2): […]
row,SMILES,pIC50
1,Cc1nc(-c2ccccc2)cc(-c2ccc(F)cc2)c1/C=C/[C@@H]1C[C@@H](O)CC(=O)O1 [Example 11c],7.05
2,Cc1cc(-c2ccc(F)cc2)c(/C=C/[C@@H]2C[C@@H](O)CC(=O)O2)c(C(C)C)n1 [Example 11d],7.30
3,CC(C)c1nc(-c2ccccc2)cc(-c2ccc(F)cc2)c1/C=C/[C@@H]1C[C@@H](O)CC(=O)O1 [Example 11e],8.30
4,CC(C)c1nc(-c2ccccc2)nc(-c2ccc(F)cc2)c1/C=C/[C@@H]1C[C@@H](O)CC(=O)O1 [Example 11o],8.30

# Test system: 3-hydroxy-3-methylglutaryl-coenzyme A reductase (HMG-CoA reductase)
# Test: not given
# Settings: cited from earlier work
row,SMILES,inhibition of HMG-CoA reductase (literature)
1,CC[C@H](C)C(=O)O[C@H]1CCC=C2C=C[C@H](C)[C@H](CC[C@@H]3C[C@@H](O)CC(=O)O3)[C@H]21 [compactin],inhibition

# Biological target: T1, HMG-CoA reductase (Rattus norvegicus, UniProt P51639)
# T1 construct: solubilized enzyme preparations from rat liver microsomes; from tissue; host or cells: rat liver microsomes (cholestyramine-induced), solubilized
# T1 sequence (P51639 1-887): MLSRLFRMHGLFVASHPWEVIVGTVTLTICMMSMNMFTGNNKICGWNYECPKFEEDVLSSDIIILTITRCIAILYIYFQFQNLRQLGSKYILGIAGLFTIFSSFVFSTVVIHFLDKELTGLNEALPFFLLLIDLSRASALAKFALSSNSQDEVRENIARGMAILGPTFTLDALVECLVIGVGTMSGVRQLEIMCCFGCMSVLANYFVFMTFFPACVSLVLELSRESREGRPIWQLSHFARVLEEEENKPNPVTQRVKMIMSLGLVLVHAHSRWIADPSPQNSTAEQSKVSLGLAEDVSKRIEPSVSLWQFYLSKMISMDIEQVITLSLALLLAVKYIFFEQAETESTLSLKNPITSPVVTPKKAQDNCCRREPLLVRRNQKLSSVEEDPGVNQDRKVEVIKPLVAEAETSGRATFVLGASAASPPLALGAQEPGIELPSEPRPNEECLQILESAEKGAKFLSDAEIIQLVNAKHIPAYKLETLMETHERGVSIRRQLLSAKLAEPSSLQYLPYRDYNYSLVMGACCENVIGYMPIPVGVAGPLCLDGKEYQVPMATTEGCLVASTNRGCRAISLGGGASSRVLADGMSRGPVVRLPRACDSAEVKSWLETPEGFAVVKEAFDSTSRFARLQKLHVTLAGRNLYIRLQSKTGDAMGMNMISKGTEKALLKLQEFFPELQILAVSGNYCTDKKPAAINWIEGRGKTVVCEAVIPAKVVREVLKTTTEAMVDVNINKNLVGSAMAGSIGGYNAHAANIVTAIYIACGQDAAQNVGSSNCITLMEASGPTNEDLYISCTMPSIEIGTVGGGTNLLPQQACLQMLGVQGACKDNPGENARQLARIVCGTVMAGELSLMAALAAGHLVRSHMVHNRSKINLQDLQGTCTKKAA
# Test: HMG-CoA reductase activity in solubilized enzyme preparations from rat liver microsomes (14C-HMG-CoA)
# Type: biochemical
# Settings: Table 1; solubilized rat liver microsomal enzyme; mean of 3 parallel samples; read-out: IC50 (molar concentration of the compound required for 50% inhibition of HMG-CoA reductase)
# Description: The HMG-CoA reductase activity was measured on solubilized enzyme preparations from rat liver microsomes induced, after a changeover in the day/night rhythm, with cholestyramine (® CUEMID). The substrate used was (S,R)-^14 C-HMG-CoA, and the NADPH concentration was maintained during the incubation by a regenerating system. ^14 C-Mevalonate was separated from the substrate and other products (for example ^14 C-HMG) by column elution, the elution profile of each individual sample being determined. ^3 H-Mevalonate was not always included in the determination because relative data on the inhibitory effects were required. […] Each individual value was the mean formed from 3 parallel samples. The significance of the mean differences between product-free and product-containing samples was assessed using the t test.
row,SMILES,pIC50
1,"Cc1cc(-c2ccc(F)cc2)c(/C=C/[C@@H](O)C[C@@H](O)CC(=O)O)c(C)n1 [Example 13a, (E)- and (Z)-(3R,5S)-3,5-Dihydroxy-7-(2,6-dimethyl-4-(4-fluorophenyl)pyridin-3-yl)-6-heptenoic acid potassium salts]",6.59
2,CC(C)c1nc(-c2ccc(O)cc2)cc(-c2ccc(F)cc2)c1/C=C/[C@@H](O)C[C@@H](O)CC(=O)O [Example 13ab],8.82
3,O=C(O)C[C@H](O)C[C@H](O)/C=C/c1c(-c2ccc(F)cc2)cc(-c2ccccc2)nc1C1CC1 [Example 13ac],9.00
4,Cc1cc(-c2ccc(Cl)cc2)c(/C=C/[C@@H](O)C[C@@H](O)CC(=O)O)c(C)n1 [Example 13b],7.03
5,Cc1nc(-c2ccccc2)cc(-c2ccc(F)cc2)c1/C=C/[C@@H](O)C[C@@H](O)CC(=O)O [Example 13c],7.42
6,Cc1cc(-c2ccc(F)cc2)c(/C=C/[C@@H](O)C[C@@H](O)CC(=O)O)c(C(C)C)n1 [Example 13d],8.04
7,CC(C)c1nc(-c2ccccc2)cc(-c2ccc(F)cc2)c1/C=C/[C@@H](O)C[C@@H](O)CC(=O)O [Example 13e],8.54
8,CC(C)c1cc(-c2ccccc2)nc(-c2ccc(F)cc2)c1/C=C/[C@@H](O)C[C@@H](O)CC(=O)O [Example 13f],8.40

# Further lines, results first:
row,pIC50,SMILES
1,7.74,CC(C)(C)c1nc(-c2ccccc2)cc(-c2ccc(F)cc2)c1/C=C/[C@@H](O)C[C@@H](O)CC(=O)O [Example 13g]
2,8.30,Cc1ccc(C)c(-c2cc(-c3ccc(F)cc3)c(/C=C/[C@@H](O)C[C@@H](O)CC(=O)O)c(C(C)C)n2)c1 [Example 13i]
3,8.64,CC(C)c1nc(-c2ccc(F)cc2)cc(-c2ccc(F)cc2)c1/C=C/[C@@H](O)C[C@@H](O)CC(=O)O [Example 13j]
4,6.30,Cc1nc(C)c(/C=C/[C@@H](O)C[C@@H](O)CC(=O)O)c(-c2ccc(F)cc2)n1 [Example 13k]
5,6.22,Cc1nc(C)c(/C=C/[C@@H](O)C[C@@H](O)CC(=O)O)c(-c2ccc(Cl)cc2)n1 [Example 13l]
6,8.52,CC(C)c1nc(-c2ccccc2)nc(-c2ccc(F)cc2)c1/C=C/[C@@H](O)C[C@@H](O)CC(=O)O [Example 13o]
7,8.60,CC(C)c1cc(-c2ccc(F)cc2)c(/C=C/[C@@H](O)C[C@@H](O)CC(=O)O)c(C(C)C)n1 [Example 13q]
8,8.92,CC(C)c1nc(C(C)(C)C)cc(-c2ccc(F)cc2)c1/C=C/[C@@H](O)C[C@@H](O)CC(=O)O [Example 13r]
9,8.43,CC(C)c1nc(C2CCCCC2)cc(-c2ccc(F)cc2)c1/C=C/[C@@H](O)C[C@@H](O)CC(=O)O [Example 13s]
10,8.60,CC(C)c1nc(-c2ccc(F)cc2)c(/C=C/[C@@H](O)C[C@@H](O)CC(=O)O)c(C(C)C)n1 [Example 13v]
11,9.05,CC(C)c1nc(-c2ccc(F)cc2)nc(-c2ccc(F)cc2)c1/C=C/[C@@H](O)C[C@@H](O)CC(=O)O [Example 13w]

# Test system: cholesterol
# Test: not given
# Settings: literature; cited from earlier work
row,SMILES,cholesterol-lowering action in human experiments
1,CC(O)(CC(=O)O)CC(=O)O [3-Hydroxy-3-methylglutaric acid],significant cholesterol-lowering action

# Test system: cholesterol
# Test: not given
# Settings: literature; cited from earlier work
# Remark: another data set of the same source
row,SMILES,cholesterol-lowering action in the rat
1,CC(O)(CC(=O)O)CC(=O)O [3-Hydroxy-3-methylglutaric acid],significant cholesterol-lowering action
